# Test results reported in PMC6556873, “Rapid Covalent-Probe Discovery by Electrophile-Fragment Screening” (Journal of the American Chemical Society, 2019).
# Read-outs that look alike come from different tables or passages of the source.
# What was measured:
# [1] = in vitro; parameters: species or system HB2, HEK293; details: human, ccd841 cells
# [2] = target: T1, PCAF (Homo sapiens, UniProt Q92831); parameters: Intact protein LC/MS covalent labelling, fragments in pools of five, 200 uM each, 4 °C; details: 24 h, 4 °C, pool of five; 200 µM; covalent
# T1 construct: gene KAT2B
# [3] = target: T2, OTUB2 (OTUB2A) (Homo sapiens, UniProt Q96DC9); parameters: Intact protein LC/MS covalent labelling, fragments in pools of five, 200 uM each, 4 °C; details: 24 h, 4 °C, pool of five; 200 µM; covalent
# T2 construct: full length residues 1-234, E. coli BL21(DE3)-R3, His tag removed by TEV, construct 27312 Da
# T2 sequence (Q96DC9 1-234): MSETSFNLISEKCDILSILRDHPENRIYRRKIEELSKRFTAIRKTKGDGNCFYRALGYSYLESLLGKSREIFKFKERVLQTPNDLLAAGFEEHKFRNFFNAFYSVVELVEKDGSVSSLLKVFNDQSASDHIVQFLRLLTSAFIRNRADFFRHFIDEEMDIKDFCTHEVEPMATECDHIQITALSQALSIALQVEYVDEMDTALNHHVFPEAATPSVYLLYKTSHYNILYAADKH
# [4] = target: T3, BSA (Bos taurus, UniProt P02769); parameters: Intact protein LC/MS covalent labelling, fragments in pools of five, 200 uM each, 4 °C; details: 24 h, 4 °C, pool of five; 200 µM; covalent
# T3 construct: gene ALB
# [5] = target: T4, NUDT7 (Homo sapiens, UniProt P0C024); parameters: Intact protein LC/MS covalent labelling, fragments in pools of five, 200 uM each, 4 °C; details: 24 h, 4 °C, pool of five; 200 µM; covalent
# T4 construct: residues 14-235, E. coli, pNIC28-Bsa4, N-terminal His6 tag removed by TEV, construct 26672 Da
# [6] = in vitro; parameters: species or system HB2, CCD841; details: human, hek293 cells
# [7] = in vitro; parameters: species or system CCD841, HEK293; details: human, hb2 cells, read-out: HB-2 Cells Viability (%)
# T1 sequence (Q92831 whole entry, the tested form may be a part): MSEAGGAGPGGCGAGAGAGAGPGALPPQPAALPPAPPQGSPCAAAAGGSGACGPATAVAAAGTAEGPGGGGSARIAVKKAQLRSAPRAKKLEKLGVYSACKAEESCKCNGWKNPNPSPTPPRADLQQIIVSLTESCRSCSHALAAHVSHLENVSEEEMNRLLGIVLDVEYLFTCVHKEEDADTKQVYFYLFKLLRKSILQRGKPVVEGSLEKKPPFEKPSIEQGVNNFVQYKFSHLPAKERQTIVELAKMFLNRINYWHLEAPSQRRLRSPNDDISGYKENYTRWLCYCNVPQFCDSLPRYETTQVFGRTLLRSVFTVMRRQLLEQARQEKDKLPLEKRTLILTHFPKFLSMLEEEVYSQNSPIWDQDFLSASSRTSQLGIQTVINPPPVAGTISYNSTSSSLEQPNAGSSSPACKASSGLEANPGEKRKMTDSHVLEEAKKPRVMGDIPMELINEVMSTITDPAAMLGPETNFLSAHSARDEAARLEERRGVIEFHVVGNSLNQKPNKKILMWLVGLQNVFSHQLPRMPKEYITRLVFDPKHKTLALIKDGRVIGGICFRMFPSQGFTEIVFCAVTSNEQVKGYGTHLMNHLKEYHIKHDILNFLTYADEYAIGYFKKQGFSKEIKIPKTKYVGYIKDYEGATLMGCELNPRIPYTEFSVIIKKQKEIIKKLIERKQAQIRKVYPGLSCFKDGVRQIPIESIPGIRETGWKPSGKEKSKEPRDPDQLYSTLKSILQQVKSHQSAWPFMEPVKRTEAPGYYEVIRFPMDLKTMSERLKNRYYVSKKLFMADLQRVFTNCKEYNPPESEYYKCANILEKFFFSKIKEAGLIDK
# T3 sequence (P02769 whole entry, the tested form may be a part): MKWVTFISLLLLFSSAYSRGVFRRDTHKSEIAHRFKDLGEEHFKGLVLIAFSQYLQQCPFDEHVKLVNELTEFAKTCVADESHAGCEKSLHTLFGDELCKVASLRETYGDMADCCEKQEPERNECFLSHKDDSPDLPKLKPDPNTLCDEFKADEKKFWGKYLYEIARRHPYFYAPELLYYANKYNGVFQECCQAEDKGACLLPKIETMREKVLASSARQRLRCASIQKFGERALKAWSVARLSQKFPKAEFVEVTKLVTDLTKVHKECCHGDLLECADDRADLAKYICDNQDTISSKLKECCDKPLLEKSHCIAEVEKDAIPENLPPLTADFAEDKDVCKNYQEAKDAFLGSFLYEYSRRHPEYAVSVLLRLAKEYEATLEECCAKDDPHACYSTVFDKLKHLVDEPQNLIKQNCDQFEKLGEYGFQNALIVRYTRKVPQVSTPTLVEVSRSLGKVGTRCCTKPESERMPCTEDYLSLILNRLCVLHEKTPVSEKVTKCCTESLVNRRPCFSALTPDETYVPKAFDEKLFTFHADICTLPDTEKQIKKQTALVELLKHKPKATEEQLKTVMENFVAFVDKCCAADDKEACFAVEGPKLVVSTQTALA
# T4 sequence (P0C024 14-235): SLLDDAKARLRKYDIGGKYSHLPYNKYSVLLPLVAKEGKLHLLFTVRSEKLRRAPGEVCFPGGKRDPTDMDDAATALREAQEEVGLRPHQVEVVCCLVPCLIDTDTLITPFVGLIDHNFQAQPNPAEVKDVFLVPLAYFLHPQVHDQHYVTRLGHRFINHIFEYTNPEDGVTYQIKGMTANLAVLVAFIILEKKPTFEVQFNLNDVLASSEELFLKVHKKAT
Structure (SMILES),"viability at 48 h, 10 µM [1]",PCAF [2],OTUB2 [3],BSA [4],NUDT7 [5],"viability at 48 h, 10 µM [6]","viability at 48 h, 10 µM [7]"
C=CC(=O)N1CC2CC3CC(C2)CC1C3 [PCM-0102443],115%,0,0.24,0,0,97.7%,99.9%
O=C(CCl)N1CCCC1c1ccsc1 (stereo not drawn) [PCM-0102693],37.7%,0,0,0,0.2,4.6%,11.7%
Cc1ccc(-c2nnc(C)[nH]2)c(NC(=O)CCl)c1 [PCM-0102775],45%,0,0,0,0.13,53%,61.1%
Cl.O=C(CCl)N1CCN(Cc2ccsc2)CC1 [PCM-0102739],85.9%,0,0,0,0.07,42.7%,55.2%
O=C(CCl)Nc1cc(F)ccc1F [PCM-0102284],58.8%,0,0.28,0,0,17.7%,38.2%
CS(=O)(=O)c1ccc(NC(=O)CCl)cc1 [PCM-0102335],46%,0,0.3,0,0.06,2.7%,37.1%
C=CC(=O)N1CCC(C#N)(c2ccccn2)CC1 [PCM-0102960],110%,0,0.06,0,0,104%,102%
C=CC(=O)N1CCCC(NC(=O)c2ccc(C(F)(F)F)cc2)C1 (stereo not drawn) [PCM-0102607],100%,0,0,0,0,114%,98.9%
O=C(CCl)NCc1ccc(F)cc1 [PCM-0102192],76.1%,0,0.31,0,0,77.8%,86.9%
COC(=O)C1CN(C(=O)CCl)c2ccccc2O1 (stereo not drawn) [PCM-0102880],96.4%,0,0.11,0,0,97.5%,112%
CCN(C(=O)CCl)c1nc2ccccc2s1 [PCM-0102186],16.1%,0,0,0,0.33,69.9%,69.7%
CC(NC(=O)CCl)c1ccc2c(c1)OCO2 (stereo not drawn) [PCM-0103030],102%,0,0.28,0,0.12,78.2%,89.2%
CC(C)(C)OC(=O)N1CCN(C(=O)CCl)CC1 [PCM-0102786],84%,0,0,0,0,68.2%,85.9%
C=CC(=O)N1CCOc2ccccc21 [PCM-0102629],86.1%,0,0,0,0,71.1%,80.9%
Cc1cccc(N(C(=O)CCl)C2C=CS(=O)(=O)C2)c1 (stereo not drawn) [PCM-0102579],16.2%,0,0,0,0.4,6.4%,29.8%
O=C(CCl)Nc1nc2c(F)c(F)c(F)cc2s1 [PCM-0102144],57.9%,0,0,0.12,0.32,83.1%,90.9%
C=CC(=O)N1CCn2c(cc3ccc(Cl)cc32)C1 [PCM-0102503],102%,0,0,0,0,74.4%,98.2%
O=C(CCl)Nc1ccc([N+](=O)[O-])cc1Br [PCM-0102848],68.4%,0,0,0,0.24,47%,54.1%
CS(=O)(=O)c1ccccc1NC(=O)CCl [PCM-0102141],98.2%,0,0,0,0,96.8%,96.8%
C=CC(=O)Nc1cc(F)cc(F)c1 [PCM-0103039],93.3%,0,0,0,0.06,67.1%,86.7%
Cc1c(C#N)c(NC(=O)CCl)n(-c2cccc(F)c2)c1C [PCM-0102146],47.1%,0,0.1,0,0.58,3.5%,25%
O=C(CCl)NCc1cccc(Cl)c1 [PCM-0102174],79.9%,0,0.25,0,0,74.3%,83.4%
O=C(CCl)NC1CCOCC1 [PCM-0103045],77.7%,0,0,0,0,110%,100%
O=C(CCl)NCc1cc(F)cc(F)c1 [PCM-0102790],71.3%,0,0,0,0,74.1%,98.6%
